The test system of the data set is GENE-TOX genotoxicity assays, various organisms and cells. As to the kind of experiment: GENE-TOX mutagenicity studies. The note with it: for call: Assay Type: In vivo carcinogenicity studies.
Setting [1] is: Species/Cell Type: Rodents, Sex: Male, Assay Type: Dominant lethal test, Assay Code: DLT-, Evaluation Type: Evaluation A (Pre-1980).
The mark [2] stands for this setting: Species/Cell Type: Human lymphocytes, Assay Type: Sister-chromatid exchange (SCE) in vitro, Assay Code: SCLT, Evaluation Type: Evaluation B (Post-1980).
Where [3] appears, read: Species/Cell Type: Human, Assay Type: Sister-chromatid exchange (SCE) in vitro, Assay Code: SC1T, Evaluation Type: Evaluation B (Post-1980).
[4] abbreviates: Species/Cell Type: Salmonella typhimurium (one or more of the five standard strains: TA98, TA100, TA1535, TA1537, and TA1538), Assay Type: Histidine reverse gene mutation, Ames assay, Assay Code: SAL+, Evaluation Type: Evaluation A (Pre-1980).
Where [5] appears, read: Species/Cell Type: Bacillus subtilis (H17 vs M45), Assay Type: Rec-assay, spot test, DNA effects (bacterial DNA repair), Assay Code: REW-, Evaluation Type: Evaluation A (Pre-1980).
Setting [6] is: Species/Cell Type: Mammalian polychromatic erythrocytes, Assay Type: Micronucleus test, chromosome aberrations, Assay Code: MNTT, Evaluation Type: Evaluation A (Pre-1980).
[7] abbreviates: Species/Cell Type: Mouse, Sex: Male, Assay Type: Sperm morphology, Assay Code: SPI-, Evaluation Type: Evaluation A (Pre-1980).
[8] abbreviates: Species/Cell Type: Drosophila melanogaster, Assay Type: Sex-linked recessive lethal gene mutation, Assay Code: SRLT, Evaluation Type: Evaluation A (Pre-1980).
Where [9] appears, read: Species/Cell Type: Mammalian polychromatic erythrocytes, Assay Type: Micronucleus test, chromosome aberrations, Assay Code: MNTT, Evaluation Type: Evaluation B (Post-1980).
Where [10] appears, read: Species/Cell Type: Escherichia coli WP2, Assay Type: Tryptophan reverse gene mutation, Assay Code: WP2+, Evaluation Type: Evaluation A (Pre-1980).
Setting [11] is: Species/Cell Type: Escherichia coli WP2 UVRA, Assay Type: Tryptophan reverse gene mutation, Assay Code: WPU+, Evaluation Type: Evaluation A (Pre-1980).
Setting [12] is: Species/Cell Type: Nonhuman, Assay Code: CCG+, Evaluation Type: Evaluation A (Pre-1980).
[13] abbreviates: Species/Cell Type: Human lymphocytes, Assay Type: Sister-chromatid exchange (SCE) in vitro, Assay Code: SCL+D, Dose Response: With dose response, Evaluation Type: Evaluation B (Post-1980).
[14] abbreviates: Species/Cell Type: Human, Assay Type: Sister-chromatid exchange (SCE) in vitro, Assay Code: SC1+D, Dose Response: With dose response, Evaluation Type: Evaluation B (Post-1980).
The mark [15] stands for this setting: Species/Cell Type: Drosophila melanogaster, Assay Type: Sex-linked recessive lethal gene mutation, Assay Code: SRL+, Evaluation Type: Evaluation A (Pre-1980).
Where [16] appears, read: Species/Cell Type: Salmonella typhimurium (one or more of the five standard strains: TA98, TA100, TA1535, TA1537, and TA1538), Assay Type: Histidine reverse gene mutation, Ames assay, Assay Code: SALT, Evaluation Type: Evaluation A (Pre-1980).

Active and inactive are the calls of the source. No rule for the calls is given here.

For `Nc1ccc(O)c([N+](=O)[O-])c1`, the mutagenic call was “active; positive” (Species/Cell Type: Fischer rat embryo (RLV/1706) cells, Assay Type: Cell transformation, viral enhanced, Assay Code: CTR+, Evaluation Type: Evaluation A (Pre-1980)) and “inactive; negative” under setting [1]. In addition, where the note is “Species/Cell Type: Nonhuman, Assay Code: CCG+L, Evaluation Type: Evaluation A (Pre-1980)”, the call was “active; positive”.
Turning to `Cc1c2ccncc2c(C)c2c1[nH]c1ccccc12`, the mutagenic call is, setting by setting: (Species/Cell Type: Chinese hamster ovary (CHO) cells, Assay Type: Forward gene mutation at the HPRT locus, Assay Code: CHO+, Evaluation Type: Evaluation B (Post-1980)) “active; positive”; (Species/Cell Type: Nonhuman, Assay Type: Sister-chromatid exchange (SCE) in vitro, Assay Code: SC2+, Evaluation Type: Evaluation B (Post-1980)) “active; positive”.
Take `O=[N+]([O-])c1cnc(CO)n1CCO`: the mutagenic call runs as follows: under setting [2], “no conclusion”; under setting [3], “no conclusion”.
`CC(=O)c1ccc([N+](=O)[O-])o1`: under setting [4], the mutagenic call was “active; positive”.
For the molecule `OCC1=C[C@H](N[C@H]2C[C@H](CO)[C@@H](O[C@@H]3O[C@H](CO)[C@@H](O)[C@H](O)[C@H]3O)[C@H](O)[C@H]2O)[C@H](O)[C@@H](O)[C@@H]1O`, under setting [5], the mutagenic call is “inactive; negative”.
In the case of `O=C(O)CCC(=O)OC[C@@H](NC(=O)C(Cl)Cl)[C@H](O)c1ccc([N+](=O)[O-])cc1`, the mutagenic call is “no conclusion” under setting [6] and “inactive; negative” under setting [7].
As to `Cc1ccc2cc3c(ccc4cc(C)ccc43)cc2c1`, the mutagenic call under setting [8] was “no conclusion”.
For `CCC[C@@H]1C[C@@H](C(=O)N[C@@H]([C@H]2O[C@H](SC)[C@H](O)[C@@H](O)[C@H]2O)[C@@H](C)O)N(C)C1`, the mutagenic call (Species/Cell Type: Bacillus subtilis (H17 vs M45T), Assay Type: Rec-assay, spot test, DNA effects (bacterial DNA repair), Assay Code: REXT, Evaluation Type: Evaluation A (Pre-1980)) was “no conclusion”.
On to `CCC[N+](=O)[O-]`, for which the mutagenic call under setting [9] is listed as “no conclusion”.
On to `O=c1cc[nH]c(=O)[nH]1`, for which, under setting [8], the mutagenic call is “no conclusion”.
Regarding `Cc1c2occc2cc2c1oc(=O)c1cnccc12`, under “Species/Cell Type: Human, Assay Type: Sister-chromatid exchange (SCE) in vitro, Assay Code: SC1+, Evaluation Type: Evaluation B (Post-1980)”, the mutagenic call is “active; positive”.
With `NC(=O)N/N=C(/CCN1CCCCC1)c1ccc([N+](=O)[O-])o1`, the mutagenic call is “active; positive” under setting [10] and “active; positive” under setting [11].
Regarding `Cc1cc(=O)[nH]c(=S)[nH]1`, the call under setting [12] was “active; positive”.
In the case of `CCc1ccccc1O`, the mutagenic call under setting [2] is given as “no conclusion” and the mutagenic call under setting [3] is recorded as “no conclusion”.
In the case of `CC(=O)N1CC1`, the mutagenic call (Species/Cell Type: Vicia faba, Assay Type: Chromosome aberrations, Assay Code: VIC+, Evaluation Type: Evaluation A (Pre-1980)) is “active; positive”.
Regarding `ClC(Cl)Br`, the mutagenic call runs as follows: under setting [13], “active; positive”; under setting [14], “active; positive”; (Species/Cell Type: Nonhuman, Assay Type: Sister-chromatid exchange (SCE) in vivo, Assay Code: SC3+D, Dose Response: With dose response, Evaluation Type: Evaluation B (Post-1980)) “active; positive”; (Species/Cell Type: Saccharomyces cerevisiae, Assay Type: Mitotic recombination or gene conversion, Assay Code: YEH-, Evaluation Type: Evaluation A (Pre-1980)) “inactive; negative”; under setting [4], “active; positive”.
As to `C=O`, the mutagenic call was “no conclusion” (Species/Cell Type: Chinese hamster ovary (CHO) cells, Assay Type: Forward gene mutation at the HPRT locus, Assay Code: CHOT, Evaluation Type: Evaluation B (Post-1980)); “active; positive” under setting [15]; “active; positive” (Species/Cell Type: Drosophila melanogaster, Sex: Male, Assay Type: Heritable translocation test, chromosome aberrations, Assay Code: DHT+, Evaluation Type: Evaluation A (Pre-1980)); “active; positive” (Species/Cell Type: Escherichia coli polA (W3119 vs P3478), Assay Type: Rec-assay, DNA effects (bacterial DNA repair), Assay Code: RE1+, Evaluation Type: Evaluation A (Pre-1980)); “no conclusion” (Species/Cell Type: Human diploid fibroblasts, Assay Type: Unscheduled DNA synthesis (UDS) in vitro, DNA effects, Assay Code: UDHT, Evaluation Type: Evaluation A (Pre-1980)); “active; positive” under setting [13]. The mutagenic call (Species/Cell Type: Human lymphocytes, Assay Type: Sister-chromatid exchange (SCE) in vivo, Assay Code: SCY+, Evaluation Type: Evaluation B (Post-1980)) is “active; positive”; the mutagenic call under setting [14] was “active; positive”; the mutagenic call under setting [9] is on record as “no conclusion”; the mutagenic call (Species/Cell Type: Neurospora crassa, Assay Type: Reverse gene mutation, Assay Code: NER+, Evaluation Type: Evaluation A (Pre-1980)) is “active; positive”; the mutagenic call (Species/Cell Type: Nonhuman, Assay Type: Sister-chromatid exchange (SCE) in vitro, Assay Code: SC2+D, Dose Response: With dose response, Evaluation Type: Evaluation B (Post-1980)) is “active; positive”; the mutagenic call (Species/Cell Type: Saccharomyces cerevisiae, Assay Type: Mitotic recombination or gene conversion, Assay Code: YEC+, Evaluation Type: Evaluation A (Pre-1980)) was “active; positive”. Further, under “Species/Cell Type: Saccharomyces cerevisiae, Assay Type: Reverse gene mutation, Assay Code: YER+, Evaluation Type: Evaluation A (Pre-1980)”, the mutagenic call is “active; positive”. In addition, the call under setting [12] is “active; positive”.
Regarding `Nc1ccc2nc3ccccn3c2n1`, the mutagenic call under setting [13] was “active; positive” and the mutagenic call under setting [14] is “active; positive”.
For the molecule `CNC(=O)C[C@@H](N)C(=O)N[C@@H](C(=O)N[C@@H]1C(=O)N2[C@@H]1SC(C)(C)[C@@H]2C(=O)O)c1ccc(O)cc1`, the mutagenic call under setting [9] is on record as “no conclusion”.
Regarding `O=C1OC(CN2CCOCC2)CN1/N=C/c1ccc([N+](=O)[O-])o1` (stereo not given), the mutagenic call by setting is: under setting [10], “active; positive”; under setting [11], “active; positive”; (Species/Cell Type: Escherichia coli WP2 UVRA, Assay Type: Tryptophan reverse gene mutation, Assay Code: WPU+D, Dose Response: With dose response, Evaluation Type: Evaluation A (Pre-1980)) “active; positive”. Under setting [12], the call was “active; positive”.
As for `O[C@@H]1c2cccc3ccc4cc5ccccc5c(c4c23)[C@H]1O`, the mutagenic call is, setting by setting: (Species/Cell Type: Chinese hamster lung (V79) cells, Assay Type: Forward gene mutation at the HPRT or ouabain locus, Assay Code: V79+, Evaluation Type: Evaluation A (Pre-1980)) “active; positive”; under setting [16], “no conclusion”.
With `COc1cc2c(c3oc(=O)c4c(c13)CCOC4=O)[C@@H]1CCO[C@@H]1O2`, the mutagenic call under setting [5] was “inactive; negative”; the mutagenic call (Species/Cell Type: Chinese hamster lung (V79) cells, Assay Type: Forward gene mutation at the HPRT or ouabain locus, Assay Code: V79-*, Activation: With metabolic activation, Evaluation Type: Evaluation A (Pre-1980)) is “inactive; negative”; the mutagenic call (Species/Cell Type: Human diploid fibroblasts, Assay Type: Unscheduled DNA synthesis (UDS) in vitro, DNA effects, Assay Code: UDH-*, Activation: With metabolic activation, Evaluation Type: Evaluation A (Pre-1980)) is “inactive; negative”; the mutagenic call (Species/Cell Type: Nonhuman, Assay Type: Sister-chromatid exchange (SCE) in vitro, Assay Code: SC2+D*, Activation: With metabolic activation, Dose Response: With dose response, Evaluation Type: Evaluation B (Post-1980)) was “active; positive”; the mutagenic call (Species/Cell Type: Rat primary hepatocytes, Assay Type: Unscheduled DNA synthesis (UDS) in vitro, DNA effects, Assay Code: UDP-, Evaluation Type: Evaluation A (Pre-1980)) was “inactive; negative”; the mutagenic call under setting [16] was “no conclusion”.
For `O=[N+]([O-])c1cccc(O)c1`, for the setting “Species/Cell Type: Allium cepa, Assay Type: Chromosome aberrations, Assay Code: ALC-, Evaluation Type: Evaluation A (Pre-1980)”, the mutagenic call was “inactive; negative”.
Turning to `COc1ccc(N)cc1N`, the mutagenic call runs as follows: under setting [15], “active; positive”; under setting [6], “no conclusion”; under setting [7], “inactive; negative”; (Species/Cell Type: Neurospora crassa, Assay Type: Aneuploidy, chromosome aberrations, Assay Code: NEN+, Evaluation Type: Evaluation A (Pre-1980)) “active; positive”; (Species/Cell Type: Nonhuman, Assay Type: Sister-chromatid exchange (SCE) in vivo, Assay Code: SC3+, Evaluation Type: Evaluation B (Post-1980)) “active; positive”; under setting [1], “inactive; negative”. Besides, the mutagenic call (Species/Cell Type: Salmonella typhimurium (one or more of the five standard strains: TA98, TA100, TA1535, TA1537, and TA1538), Assay Type: Histidine reverse gene mutation, Ames assay, Assay Code: SAL+*, Activation: With metabolic activation, Evaluation Type: Evaluation A (Pre-1980)) is “active; positive”. In addition, the call under setting [12] was “active; positive”.

Source of the values: PubChem BioAssay AID1259408 (Genetic Toxicology Data Bank (GENE-TOX), 2018).
